Test results from US20150105252A1, “SUBSTITUTED PYRAZOLES AS HERBICIDES” (E I DU PONT DE NEMOURS AND COMPANY, priority 2013, published 2015).

Columns and labels:
foxtail, green = assay: Test D preemergence; format: in vivo, Setaria viridis; settings: scale 0 to 100
Summary of the method: (§1)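 Preemergence: seeds sown in silt loam soil and sprayed with test chemical in non-phytotoxic solvent mixture with surfactant. Postemergence: plants grown in peat/vermiculite medium, sprayed at 2–18 cm (1- to 4-leaf stage). Visual rating versus untreated controls after 14–21 days, 0 (no effect) to 100 (complete control).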

southern sandbur = assay: Test F preemergence; format: in vivo, Cenchrus echinatus
Summary of the method: (§2)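 Formulated in surfactant-containing non-phytotoxic solvent; pre: applied to seeded silt loam; post: applied to plants 2–18 cm (1–4 leaves); greenhouse 14–21 d; visual 0–100 rating vs controls.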

barnyardgrass = assay: Test F preemergence; format: in vivo, Echinochloa crus-galli
Summary of the method: as §2

nightshade = assay: Test F preemergence; format: in vivo, Solanum ptycanthum
Summary of the method: as §2

radish, wild = assay: Test D postemergence; format: in vivo, Raphanus raphanistrum; settings: scale 0 to 100
Summary of the method: as §1

buckwheat, wild = assay: Test D postemergence; format: in vivo, Polygonum convolvulus; settings: scale 0 to 100
Summary of the method: as §1

bluegrass = assay: Test D preemergence; format: in vivo, Poa annua; settings: scale 0 to 100
Summary of the method: as §1

blackgrass = assay: Test D postemergence; format: in vivo, Alopecurus myosuroides; settings: scale 0 to 100
Summary of the method: as §1

ryegrass, Italian = assay: Test D postemergence; format: in vivo, Lolium multiflorum; settings: scale 0 to 100
Summary of the method: as §1

corn = assay: Test F preemergence; format: in vivo, Zea mays
Summary of the method: as §2

Surinam grass = assay: Test F preemergence; format: in vivo, Brachiaria decumbens
Summary of the method: as §2

field bindweed = assay: Test F preemergence; format: in vivo, Convolvulus arvensis
Summary of the method: as §2

chickweed = assay: Test D preemergence; format: in vivo, Stellaria media; settings: scale 0 to 100
Summary of the method: as §1

[1] = Preemergence, 62 g ai/ha, scale 0 to 100
[2] = Preemergence, 125 g ai/ha, scale 0 to 100
[3] = preemergence, 8 g ai/ha, scale 0 to 100, 100 is complete control
[4] = Preemergence, 16 g ai/ha, scale 0 to 100

With `CCOc1cc(C(=O)NC(C)C)nn1Cc1ccnc(C(F)(F)F)c1` [Compound 188] the “Plant response rating, Foxtail, Green” value (foxtail, green; 62 g ai/ha) was 100, the “Plant response rating, Foxtail, Green” value (foxtail, green; 125 g ai/ha) was 100 and the “Plant response rating, Foxtail, Green” value (foxtail, green; 250 g ai/ha) was 100. For the same molecule, the “Plant response rating, Southern Sandbur” value (southern sandbur; [1]) was 65, the “Plant response rating, Southern Sandbur” value (southern sandbur; [2]) was 100 and the “Plant response rating, Southern Sandbur” value (southern sandbur; [3]) was 0. The “Plant response rating, Barnyardgrass” value (barnyardgrass; [4]) was 25, the “Plant response rating, Barnyardgrass” value (barnyardgrass; [1]) was 80 and the “Plant response rating, Barnyardgrass” value (barnyardgrass; [2]) was 100. For the same molecule, the “Plant response rating, Barnyardgrass” value (barnyardgrass; [3]) was 0, the “Plant response rating, Nightshade” value (nightshade; [4]) was 98 and the “Plant response rating, Nightshade” value (nightshade; [1]) was 95. For the same molecule, the “Plant response rating, Nightshade” value (nightshade; [2]) was 98, the “Plant response rating, Nightshade” value (nightshade; [3]) was 0 and the “Radish, Wild plant response rating” value (radish, wild; Postemergence, 31 g ai/ha) was 70. The “Radish, Wild plant response rating” value (radish, wild; Postemergence, 125 g ai/ha) was 70, the “Radish, Wild plant response rating” value (radish, wild; Postemergence, 250 g ai/ha) was 90 and the “Radish, Wild plant response rating” value (radish, wild; postemergence, 62 g ai/ha) was 70. The “Buckwheat, Wild plant response rating” value (buckwheat, wild; Postemergence, 31 g ai/ha) was 60, the “Buckwheat, Wild plant response rating” value (buckwheat, wild; Postemergence, 125 g ai/ha) was 70 and the “Buckwheat, Wild plant response rating” value (buckwheat, wild; Postemergence, 250 g ai/ha) was 70. The “Buckwheat, Wild plant response rating” value (buckwheat, wild; postemergence, 62 g ai/ha) was 60, the “Plant response rating, Bluegrass” value (bluegrass; 31 g ai/ha) was 55 and the “Plant response rating, Bluegrass” value (bluegrass; 62 g ai/ha) was 70. For the same molecule, the “Plant response rating, Bluegrass” value (bluegrass; 125 g ai/ha) was 100, the “Plant response rating, Bluegrass” value (bluegrass; 250 g ai/ha) was 100 and the “Blackgrass plant response rating” value (blackgrass; Postemergence, 31 g ai/ha) was 15. The “Blackgrass plant response rating” value (blackgrass; Postemergence, 125 g ai/ha) was 35, the “Blackgrass plant response rating” value (blackgrass; Postemergence, 250 g ai/ha) was 45 and the “Blackgrass plant response rating” value (blackgrass; postemergence, 62 g ai/ha) was 15. The “Ryegrass, Italian plant response rating” value (ryegrass, Italian; Postemergence, 31 g ai/ha) was 20, the “Ryegrass, Italian plant response rating” value (ryegrass, Italian; Postemergence, 125 g ai/ha) was 25 and the “Ryegrass, Italian plant response rating” value (ryegrass, Italian; Postemergence, 250 g ai/ha) was 65. For the same molecule, the “Ryegrass, Italian plant response rating” value (ryegrass, Italian; postemergence, 62 g ai/ha) was 20, the “Plant response rating, Corn” value (corn; [1]) was 15 and the “Plant response rating, Corn” value (corn; [2]) was 65. The “Plant response rating, Corn” value (corn; [3]) was 20, the “Plant response rating, Surinam Grass” value (Surinam grass; [1]) was 100 and the “Plant response rating, Surinam Grass” value (Surinam grass; [2]) was 100. For the same molecule, the “Plant response rating, Surinam Grass” value (Surinam grass; [3]) was 20, the “Plant response rating, Field Bindweed” value (field bindweed; [4]) was 30 and the “Plant response rating, Field Bindweed” value (field bindweed; [1]) was 40. The “Plant response rating, Field Bindweed” value (field bindweed; [2]) was 100, the “Plant response rating, Field Bindweed” value (field bindweed; [3]) was 35 and the “Plant response rating, Chickweed” value (chickweed; 31 g ai/ha) was 100. The “Plant response rating, Chickweed” value (chickweed; 62 g ai/ha) was 100, the “Plant response rating, Chickweed” value (chickweed; 125 g ai/ha) was 100 and the “Plant response rating, Chickweed” value (chickweed; 250 g ai/ha) was 100.
